Experimental data: patent publication US10047050B2, “3,4-di-substituted pyridine compound, methods of using and compositions comprising the same” (ARDEA BIOSCIENCES, INC., priority 2011, dated 2018)
“And” between values parts separate entries of the source, which are not always exact repeats. Equal entries are not always repeated.

Test system: serum uric acid
Assay: Single-dose Phase I clinical trial, serum uric acid (sUA) 0-72 hours post-dose
Assay type: in vivo, human
Conditions: for % sUA change (from baseline) / % sUA reduction (from baseline): individual subjects 3-8; for % sUA change (from baseline), Mean (3-8) / Absolute sUA concentration, Mean (3-8) / % sUA reduction (from baseline), Mean (3-8): mean of subjects 3-8
Experimental: A Phase 1, Randomized, Double-Blind, Placebo-Controlled Study to Evaluate Safety, Tolerability, Pharmacokinetics and Preliminary Food Effect of Single Doses of a URAT1 Inhibitor, in Healthy Adult Male Volunteers.
To assess safety, tolerability, pharmacokinetics and uricosuric effects after oral administration as single doses of a tablet formulation and the effect of food on bioavailability.
Subjects receive a single, oral dose of active or placebo, at the following doses:
Group 4: 20 mg (fasted) [sentinel dosing];
48 subjects in 6 dose groups, 8 subjects/group, are randomized 3:1 to receive active (6/group) or placebo (2/group). All study procedures are the same regardless of whether subject receives active or placebo. The total duration of subject participation, including screening period, is ˜2-4 weeks, and the total volume of blood collected from each subject during the entire study <500 mL, (less than typically collected during a volunteer blood donation).
5 mg and 20 mg, active and placebo, tablets packaged in 35 count HDPE bottles, stored at controlled room temperature (15-30° C.). Placebo tablets are designed to match the active tablets—identical size, form, taste, and color, and containing the same excipients. 2 mg was dosed as an oral solution.
Subjects dosed on the morning of Day 1 with ˜240 mL of room temp water.
Fasted: subjects are dosed after overnight fast >10 hours and remain fasted until >4 hours post-dose.
Fed: subjects fast overnight for >10 hours, then are dosed 30 mins after completing standard moderate fat breakfast (no high fructose corn syrup).
Serum samples are collected at:
PD samples are frozen (−20° C.) and stored; all samples from a given subject assayed in a single analytical run.

[1] = Group 1, 2 mg single oral dose, fasted, 0 h (baseline)
[2] = Group 1, 2 mg single oral dose, fasted, 6 h post-dose
[3] = Group 1, 2 mg single oral dose, fasted, 12 h post-dose
[4] = Group 1, 2 mg single oral dose, fasted, 24 h post-dose
[5] = Group 1, 2 mg single oral dose, fasted, 30 h post-dose
[6] = Group 1, 2 mg single oral dose, fasted, 36 h post-dose
[7] = Group 1, 2 mg single oral dose, fasted, 48 h post-dose
[8] = Group 1, 2 mg single oral dose, fasted, 54 h post-dose
[9] = Group 1, 2 mg single oral dose, fasted, 60 h post-dose
[10] = Group 1, 2 mg single oral dose, fasted, 72 h post-dose
[11] = Group 2, 5 mg single oral dose, fasted, 0 h (baseline)
[12] = Group 2, 5 mg single oral dose, fasted, 6 h post-dose
[13] = Group 2, 5 mg single oral dose, fasted, 12 h post-dose
[14] = Group 2, 5 mg single oral dose, fasted, 24 h post-dose
[15] = Group 2, 5 mg single oral dose, fasted, 30 h post-dose
[16] = Group 2, 5 mg single oral dose, fasted, 36 h post-dose
[17] = Group 2, 5 mg single oral dose, fasted, 48 h post-dose
[18] = Group 2, 5 mg single oral dose, fasted, 54 h post-dose
[19] = Group 2, 5 mg single oral dose, fasted, 60 h post-dose
[20] = Group 2, 5 mg single oral dose, fasted, 72 h post-dose
[21] = Group 3, 5 mg single oral dose, fed, 0 h (baseline)
[22] = Group 3, 5 mg single oral dose, fed, 6 h post-dose
[23] = Group 3, 5 mg single oral dose, fed, 12 h post-dose
[24] = Group 3, 5 mg single oral dose, fed, 24 h post-dose
[25] = Group 3, 5 mg single oral dose, fed, 30 h post-dose
[26] = Group 3, 5 mg single oral dose, fed, 36 h post-dose
[27] = Group 3, 5 mg single oral dose, fed, 48 h post-dose

CC(C)(Sc1ccncc1-c1ccc(C#N)c2ccccc12)C(=O)O [2-((3-(4-cyanonaphthalen-1-yl)pyridin-4-yl)thio)-2-methylpropanoic acid]
% sUA change (from baseline) [1]: 0%
% sUA change (from baseline), Mean (3-8) [1]: 0%
Absolute sUA concentration, Mean (3-8) [1]: 6.5 mg/dL
% sUA change (from baseline) [2]: −30.4% and −47.5% and −35.5% and −37.8% and −38.2% and −33.3%
% sUA change (from baseline), Mean (3-8) [2]: −10.2%
Absolute sUA concentration, Mean (3-8) [2]: 5.8 mg/dL
% sUA change (from baseline) [3]: −44.6% (2×) and −52.5% and −48.4% and −43.4% and −42.3%
% sUA change (from baseline), Mean (3-8) [3]: −15.6%
Absolute sUA concentration, Mean (3-8) [3]: 5.5 mg/dL
% sUA change (from baseline) [4]: −41.1% and −44.1% and −43.5% and −40.5% and −43.4% and −46.2%
% sUA change (from baseline), Mean (3-8) [4]: −8.1%
Absolute sUA concentration, Mean (3-8) [4]: 6.0 mg/dL
% sUA change (from baseline) [5]: −46.4% and −52.5% and −43.5% and −44.6% and −44.7% and −52.6%
% sUA change (from baseline), Mean (3-8) [5]: −13.5%
Absolute sUA concentration, Mean (3-8) [5]: 5.6 mg/dL
% sUA change (from baseline) [6]: −48.2% and −52.5% and −45.2% and −45.9% and −46.1% and −52.6%
% sUA change (from baseline), Mean (3-8) [6]: −18.8%
Absolute sUA concentration, Mean (3-8) [6]: 5.3 mg/dL
% sUA change (from baseline) [7]: −32.1% and −42.4% and −38.7% and −36.5% and −35.5% and −48.7%
% sUA change (from baseline), Mean (3-8) [7]: −13.3%
Absolute sUA concentration, Mean (3-8) [7]: 5.6 mg/dL
% sUA change (from baseline) [8]: −33.9% and −45.8% and −37.1% and −27% and −32.9% and −48.7%
% sUA change (from baseline), Mean (3-8) [8]: −19.3%
Absolute sUA concentration, Mean (3-8) [8]: 5.3 mg/dL
% sUA change (from baseline) [9]: −35.7% and −45.8% and −35.5% and −29.7% and −32.9% and −46.2%
% sUA change (from baseline), Mean (3-8) [9]: −21.3%
Absolute sUA concentration, Mean (3-8) [9]: 5.1 mg/dL
% sUA change (from baseline) [10]: −23.2% and −30.5% and −16.1% and −14.9% and −15.8% and −28.2%
% sUA change (from baseline), Mean (3-8) [10]: −15.5%
Absolute sUA concentration, Mean (3-8) [10]: 5.5 mg/dL
% sUA reduction (from baseline) [11]: 0%
% sUA reduction (from baseline), Mean (3-8) [11]: 0%
Absolute sUA concentration, Mean (3-8) [11]: 6.5 mg/dL
% sUA reduction (from baseline) [12]: −24.3% and −13.9% and −14.3% and −13.1% and −27.9% and −22.0%
% sUA reduction (from baseline), Mean (3-8) [12]: −19.3%
Absolute sUA concentration, Mean (3-8) [12]: 5.3 mg/dL
% sUA reduction (from baseline) [13]: −36.5% and −16.7% and −19.0% and −13.1% and −37.7% and −32.2%
% sUA reduction (from baseline), Mean (3-8) [13]: −25.9%
Absolute sUA concentration, Mean (3-8) [13]: 4.8 mg/dL
% sUA reduction (from baseline) [14]: −25.7% and −11.1% (2×) and 0.0% and −26.2% and −16.9%
% sUA reduction (from baseline), Mean (3-8) [14]: −15.2%
Absolute sUA concentration, Mean (3-8) [14]: 5.5 mg/dL
% sUA reduction (from baseline) [15]: −29.7% and −16.7% and −17.5% and −8.2% and −36.1% and −28.8%
% sUA reduction (from baseline), Mean (3-8) [15]: −22.8%
Absolute sUA concentration, Mean (3-8) [15]: 5.0 mg/dL
% sUA reduction (from baseline) [16]: −32.4% and −23.6% and −14.3% and −14.8% and −41.0% and −32.2%
% sUA reduction (from baseline), Mean (3-8) [16]: −26.4%
Absolute sUA concentration, Mean (3-8) [16]: 4.8 mg/dL
% sUA reduction (from baseline) [17]: −27.0% and −11.1% and −9.5% and −11.5% and −31.1% and −20.3%
% sUA reduction (from baseline), Mean (3-8) [17]: −18.4%
Absolute sUA concentration, Mean (3-8) [17]: 5.3 mg/dL
% sUA reduction (from baseline) [18]: −31.1% and −18.1% and −15.9% and −16.4% and −32.8% and −28.8%
% sUA reduction (from baseline), Mean (3-8) [18]: −23.9%
Absolute sUA concentration, Mean (3-8) [18]: 5.0 mg/dL
% sUA reduction (from baseline) [19]: −28.4% and −22.2% and −20.6% and −21.3% and −32.8% and −28.8%
% sUA reduction (from baseline), Mean (3-8) [19]: −25.7%
Absolute sUA concentration, Mean (3-8) [19]: 4.8 mg/dL
% sUA reduction (from baseline) [20]: −21.6% and −15.3% and −12.7% and −13.1% and −26.2% and −23.7%
% sUA reduction (from baseline), Mean (3-8) [20]: −18.8%
Absolute sUA concentration, Mean (3-8) [20]: 5.3 mg/dL
% sUA reduction (from baseline) [21]: 0%
% sUA reduction (from baseline), Mean (3-8) [21]: 0%
Absolute sUA concentration, Mean (3-8) [21]: 6.0 mg/dL
% sUA reduction (from baseline) [22]: −36.2% and −31.8% and −25.0% and −22.8% and −30.0%
% sUA reduction (from baseline), Mean (3-8) [22]: −29.2%
Absolute sUA concentration, Mean (3-8) [22]: 4.1 mg/dL
% sUA reduction (from baseline) [23]: −40.6% and −37.9% and −29.2% and −25.0% and −22.8%
% sUA reduction (from baseline), Mean (3-8) [23]: −32.2%
Absolute sUA concentration, Mean (3-8) [23]: 4.0 mg/dL
% sUA reduction (from baseline), Mean (3-8) [24]: −17.2%
Absolute sUA concentration, Mean (3-8) [24]: 4.9 mg/dL
% sUA reduction (from baseline), Mean (3-8) [25]: −25.6%
Absolute sUA concentration, Mean (3-8) [25]: 4.4 mg/dL
% sUA reduction (from baseline), Mean (3-8) [26]: −29.1%
Absolute sUA concentration, Mean (3-8) [26]: 4.2 mg/dL
% sUA reduction (from baseline) [27]: −31.9% and −30.3% and −23.1% and −23.3% and −14.0% and −27.5%
% sUA reduction (from baseline), Mean (3-8) [27]: −25.0%
